Numbered stars: 1 amine (or outer) side, 2 acyl side, 3 side chain; on linkers, the order of the positions; unused ones are H or OH. Peptide text beside a SMILES is read from it. * marks the point of attachment. CO = O=C([*:1])[*:2]; NHPh = c1ccc(N*)cc1
Test: In vitro inhibition of RPMI 8866 cell adhesion to human MAdCAM-1 IgG chimera.
Format: cell-based
For CC(C)C[C@H](NC(=O)c1cc2ccccc2o1)C(=O)N[C@@H](CC(=O)O)C(=O)N[C@H](C(=O)NCc1ccc(F)c(F)c1)[C@@H](C)O, the IC50 was 5.2 µM. In the case of CC(C)C[C@H](NS(=O)(=O)c1ccccc1)C(=O)N[C@@H](CC(=O)O)C(=O)N[C@H](C(N)=O)[C@@H](C)O, the IC50 is reported as over 25 µM. For CC(C)C[C@H](NC(=O)c1ccc([N+](=O)[O-])cc1)C(=O)N[C@@H](CC(=O)O)C(=O)N[C@H](C(N)=O)[C@@H](C)O, the IC50 was 9 µM. In the case of CC(C)C[C@H](NC(=O)c1ccccc1)C(=O)N[C@@H](CC(=O)O)C(=O)N[C@H](C(N)=O)[C@@H](C)O (HELM PEPTIDE1{[O=C(c1ccccc1)[*:2]].L.D.T.[am]}$$$$V2.0), the IC50 is reported as 8.2 µM. In the case of CC(C)C[C@H](NC(=O)Nc1ccccc1)C(=O)N[C@@H](CC(=O)O)C(=O)N[C@H](C(N)=O)[C@@H](C)O ({NHPh-CO}-Leu-Asp-Thr-NH2), the IC50 is reported as over 25 µM. Compound CC(C)C[C@H](NC(=O)c1cc2ccccc2cn1)C(=O)N[C@@H](CC(=O)O)C(=O)N[C@H](C(=O)NCc1ccc(F)cc1)[C@@H](C)O has an IC50 of 5.2 µM. CC(C)C[C@H](NC(=O)c1coc2ccccc2c1=O)C(=O)N[C@@H](CC(=O)O)C(=O)N[C@H](C(N)=O)[C@H](C)O gave an IC50 of 4.7 µM. For CC(C)C[C@H](NC(=O)c1cc2ccccc2cn1)C(=O)N[C@@H](CC(=O)O)C(=O)N[C@H](C(N)=O)[C@@H](C)O, the IC50 was 3.1 µM. Compound CC(=O)N[C@@H](CC(C)C)C(=O)N[C@@H](CC(=O)O)C(=O)N[C@H](C(N)=O)[C@@H](C)O (Ac-Leu-Asp-Thr-NH2) has an IC50 of 250 µM. CC(C)C[C@H](NC(=O)c1cc2ccccc2cn1)C(=O)N[C@@H](CC(=O)O)C(=O)N[C@H](C(=O)NCc1ccncc1)[C@@H](C)O showed an IC50 of 1.1 µM. For CC(C)C[C@H](NC(=O)c1cc2ccccc2o1)C(=O)N[C@@H](CC(=O)O)C(=O)N[C@H](C(N)=O)[C@@H](C)O, the IC50 was 2.3 µM. Work on CC(C)C[C@H](NC(=O)c1coc2ccccc2c1=O)C(=O)N[C@@H](CC(=O)O)C(=O)NC(C(N)=O)C(O)c1ccccc1 (some centres undefined) yielded an IC50 of 6.4 µM. Compound CC(C)C[C@H](NC(=O)c1coc2ccccc2c1=O)C(=O)N[C@@H](CC(=O)O)C(=O)N[C@H](C(N)=O)[C@@H](C)O has an IC50 of 1.3 µM. In the case of CC(C)C[C@H](NC(=O)c1cc2ccccc2o1)C(=O)N[C@@H](CC(=O)O)C(=O)N[C@H](C(=O)NCc1ccc2c(c1)OCO2)[C@@H](C)O, the IC50 is reported as 4.4 µM. For COc1ccc(CCNC(=O)[C@@H](NC(=O)[C@H](CC(=O)O)NC(=O)[C@H](CC(C)C)NC(=O)c2cc3ccccc3cn2)[C@@H](C)O)cc1, the IC50 was over 25 µM. In the case of COc1ccc(C(=O)N[C@@H](CC(C)C)C(=O)N[C@@H](CC(=O)O)C(=O)N[C@H](C(N)=O)[C@@H](C)O)cc1, the IC50 is reported as over 25 µM. For CC(C)C[C@H](NC(=O)/C=C/c1ccccc1)C(=O)N[C@@H](CC(=O)O)C(=O)N[C@H](C(N)=O)[C@@H](C)O, the IC50 was 4.9 µM. Compound COc1ccc(CNC(=O)[C@@H](NC(=O)[C@H](CC(=O)O)NC(=O)[C@H](CC(C)C)NC(=O)c2cc3ccccc3cn2)[C@@H](C)O)cc1 has an IC50 of 3 µM. CC(C)C[C@H](NC(=O)c1cc2ccccc2cn1)C(=O)N[C@@H](CC(=O)O)C(=O)N[C@@H](C(N)=O)[C@@H](C)O gave an IC50 of 3.9 µM.

— ChEMBL document CHEMBL1131364, “Novel modified tripeptide inhibitors of alpha 4 beta 7 mediated lymphoid cell adhesion to MAdCAM-1” (Bioorg Med Chem Lett, 1998)
